Reference: patent US6967196B1, “Sulfonamide compounds and uses thereof” (Bristol-Myers Squibb Company, priority 1999, dated 2005)
pIC50: −log10 of the molar value. Where a name gives a salt, the structure may show the parent alone. Read-outs that look alike come from different tables or passages of the source. Values belong to the compound of their own block, whether it stands above or below them.

Tested on: amyloid β production in transfected H4 (human neuroglioma) cells stably expressing APP constructs
Assay: In vitro cell-based assay of inhibitors of amyloid β production (ELISA)
Settings: amyloid β in medium by ELISA
In short: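 Cells expressing wild-type or variant APP were plated ≥6 h before medium was replaced with compound-containing medium (initial screen 10-100 μM) and incubated ~16 h. Secreted Aβ in medium was quantified by sandwich ELISA (C-terminal-specific mouse monoclonal capture, N-terminal rabbit polyclonal detection) against an Aβ standard curve.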

[1] = Homo sapiens, 16 h, transfected H4 cells stably expressing APP, approximately 16 hours incubation, Table B, read-out: ACTIVITY (IC50, inhibition of amyloid β production)
[2] = Homo sapiens, 16 h, transfected H4 cells expressing APP, approximately 16 hours incubation, read-out: ACTIVITY (IC50, inhibition of amyloid β production)
[3] = transfected H4 cells stably expressing APP constructs, approximately 16 hours incubation, read-out: ACTIVITY (IC50, inhibition of amyloid β production)
[4] = Homo sapiens, 16 h, transfected H4 cells stably expressing APP constructs, approximately 16 hours incubation, read-out: ACTIVITY (IC50, inhibition of amyloid β production)
[5] = transfected H4 cells stably expressing APP, approximately 16 hours incubation, read-out: ACTIVITY (IC50, inhibition of amyloid β production)
[6] = transfected H4 cells stably expressing APP, approximately 16 hours incubation, Table B, read-out: ACTIVITY (IC50, inhibition of amyloid β production)
[7] = transfected H4 cells stably expressing APP, approx. 16 h incubation, read-out: ACTIVITY (IC50, inhibition of amyloid β production)
[8] = Table B, transfected H4 cells stably expressing APP, approximately 16 hours incubation, read-out: ACTIVITY (inhibitory concentration IC50, inhibition of amyloid β production)
[9] = Homo sapiens, 16 h, transfected H4 cells stably expressing APP, approximately 16 hours incubation, read-out: ACTIVITY (IC50, inhibition of amyloid β production)

pIC50 [2]: < 6.30
Compound: C[C@H](C(=O)NCCN1CCCCC1)N(c1cc(Cl)ccc1F)S(=O)(=O)c1ccc(Cl)cc1 [Example 1352]

pIC50 [4]: ≥ 7.60
Compound: C[C@H](CCC[N+](=O)[O-])N(c1cc(Cl)ccc1Cl)S(=O)(=O)c1ccc(Cl)cc1 [Example 1099, 4-chloro-N-(2,5-dichlorophenyl)-N-[4-nitro-1(R)-methylbutyl]benzenesulfonamide]

pIC50 [5]: 6.30 to 7.00
Compound: N-{2-[2-(1-{[(4-chlorophenyl)sulfonyl]-2,5-difluoroanilino}ethyl)phenoxy]ethyl}-N,2-diethylhexanamide [Example 831]

pIC50 [2]: 6.30 to 7.00
Compound: C[C@H](C(=O)NC1CCCC1)C(c1cc(Cl)ccc1F)S(=O)(=O)c1ccc(Cl)cc1 (stereo partly drawn) [Example 1307]

pIC50 [7]: 6.30 to 7.00
Compound: N-{3-[2-(1-{[(4-chlorophenyl)sulfonyl]-2,5-difluoroanilino}ethyl)phenoxy]propyl}-N-methyl-1-naphthalenesulfonamide [Example 776]

pIC50 [4]: ≥ 7.60
Compound: CCCC(c1cc(F)ccc1[C@@H](C)N(c1cc(F)ccc1F)S(=O)(=O)c1ccc(Cl)cc1)N1CCS(=O)(=O)C(C)C1 (stereo partly drawn) [Example 1278, (R)-4-Chloro-N-(2,5-difluorophenyl)-N-[1-[4-fluoro-2-[1-(1,1-dioxo-2-methyl-4-thiomorpholinyl)butyl]phenyl]ethyl]benzenesulfonamide]

pIC50 [7]: 6.30 to 7.00
Compound: N-{4-[2-(1-{[(4-chlorophenyl)sulfonyl]-2,5-difluoroanilino}ethyl)phenoxy]butyl}-N-ethyl-2-thiophenecarboxamide [Example 756]

pIC50 [2]: < 6.30
Compound: C[C@H](C(=O)NCCCN1CCOCC1)N(c1cc(Cl)ccc1F)S(=O)(=O)c1ccc(Cl)cc1 [Example 1322]

pIC50 [8]: ≥ 7.60
Compound: CS(=O)(=O)C[C@H]1CCCN1 [Example 68]

pIC50 [8]: ≥ 7.60
Compound: C[C@H](CCCC(=O)O)N(c1cc(Cl)ccc1Cl)S(=O)(=O)c1ccc(Cl)cc1 [Example 36, (5R)-5-[(2,5-dichlorophenyl][(4-chlorophenyl)sulfonyl]-amino]hexanoic Acid]

pIC50 [9]: 6.30 to 7.00
Compound: O=S(=O)(c1ccc(Cl)cc1)N(Cc1ccccc1OCCCN1CCC(O)(C(F)(F)F)CC1)c1ccccc1 [Example 833, 4-chloro-N-(2-{3-[4-hydroxy-4-(trifluoromethyl)-1-piperidinyl]propoxy}benzyl)-N-phenylbenzenesulfonamide hydrochloride]

pIC50 [9]: < 6.30
Compound: CSCCCc1cc(F)ccc1[C@@H](C)N(c1cc(F)ccc1F)S(=O)(=O)c1ccc(SC)cc1 [Example 912, N-(2,5-difluorophenyl)-N-((1R)-1-{4-fluoro-2-[3-(methylsulfanyl)propyl]phenyl}ethyl)-4-(methylsulfanyl)benzenesulfonamide]

pIC50 [8]: ≥ 7.60
Compound: C[C@H](CCCS(=O)(=O)Cl)N(c1cc(Cl)ccc1F)S(=O)(=O)c1ccc(Cl)cc1 [Example 43, (4R)-4-[N-[5-chloro-2-fluorophenyl][(4-chlorophenyl)sulfonyl]amino]pentylsulfonyl Chloride]

pIC50 [1]: 7.00 to 7.30
Compound: CC(c1ccccc1OCCCN(C)S(=O)(=O)c1ccc([N+](=O)[O-])cc1)N(c1cc(F)ccc1F)S(=O)(=O)c1ccc(Cl)cc1 (stereo not drawn) [Example 410, 4-chloro-N-(2,5-difluorophenyl)-N-{1-[2-(3-{methyl[(4-nitrophenyl)sulfonyl]amino}propoxy)phenyl]ethyl}benzenesulfonamide]

pIC50 (Homo sapiens, 16 h, transfected H4 cells stably expressing APP, approx. 16 h incubation, read-out: ACTIVITY (IC50, inhibition of amyloid β production)): 6.30 to 7.00
Compound: O=S(=O)(c1ccc(Cl)cc1)N(Cc1ccccc1OCCCn1ccnc1)c1cc(Cl)ccc1Cl [Example 740, 4-chloro-N-(2,5-dichlorophenyl)-N-{2-[3-(1H-imidazol-1-yl)propoxy]benzyl}benzenesulfonamide hydrochloride]

The next lines start with the compound.

Compound: O=S1(=O)CCN(CCCOc2ccccc2CN(c2ccccc2)S(=O)(=O)c2ccc(Cl)cc2)CC1 [Example 492, 4-chloro-N-{2-[3-(1,1-dioxido-4-thiomorpholinyl)propoxy]benzyl}-N-phenylbenzenesulfonamide hydrochloride]
pIC50 [1]: 6.30 to 7.00

Compound: O=S1(=O)CCN(CCCOc2ccccc2CN(c2ccccc2)S(=O)(=O)c2ccc(Cl)cc2)CC1 [Example 313, 4-Chloro-N-{2-[3-(1,1-dioxido-4-thiomorpholinyl)propoxy]benzyl}-N-phenylbenzenesulfonamide Hydrochloride]
pIC50 (transfected H4 cells stably expressing APP, approximately 16 hours incubation, Table B, Hydrochloride, read-out: ACTIVITY (IC50, inhibition of amyloid β production)): 7.00 to 7.30

Compound: CC(C)[C@@H](NC(=O)CCC[C@@H](C)N(c1cc(Cl)ccc1F)S(=O)(=O)c1ccc(Cl)cc1)C(=O)O [Example 1270, (R)-4-Chloro-N-(5-chloro-2-fluorophenyl)-N-[5-[N-(R)-[1-(carboxy)-2-methylpropyl]amino]-1-methyl-5-oxopentyl]benzenesulfonamide]
pIC50 [3]: 7.30 to 7.60

Compound: C[N+]1(CCCOc2ccccc2CN(c2cc(Cl)ccc2Cl)S(=O)(=O)c2ccc(Cl)cc2)CCCCC1 [Example 513, 1-{3-[2-({2,5-dichloro[(4-chlorophenyl)sulfonyl]anilino}methyl)phenoxy]propyl}-1-methylpiperidinium Iodide]
pIC50 [6]: 6.30 to 7.00

Compound: N-{3-[2-({[(4-chlorophenyl)sulfonyl]-2,5-difluoroanilino}methyl)phenoxy]propyl}-N-methyl-2-naphthamide [Example 810]
pIC50 [5]: 6.30 to 7.00

Compound: C[C@H](COC(=O)NCCN1CCCCC1)N(c1cc(Cl)ccc1Cl)S(=O)(=O)c1ccc(Cl)cc1 [Example 1242]
pIC50 [3]: ≥ 7.60

Compound: CC(C)CS(=O)(=O)CCC[C@@H](C)N(c1cc(Cl)ccc1Cl)S(=O)(=O)c1ccc(Cl)cc1 [Example 1184]
pIC50 [3]: 7.30 to 7.60

Compound: CNC(=O)CCCc1cc(F)ccc1[C@@H](C)N(c1cc(F)ccc1F)S(=O)(=O)c1ccc(Cl)cc1 [Example 498, 4-[2-((1R)-1-{[(4-chlorophenyl)sulfonyl]-2,5-difluoroanilino}ethyl)-5-fluorophenyl]-N-methylbutanamide]
pIC50 [6]: 6.30 to 7.00

Compound: N-{3-[2-({[(4-chlorophenyl)sulfonyl]-2,5-difluoroanilino}methyl)phenoxy]propyl}-3,5-difluoro-N-methylbenzamide [Example 1000]
pIC50 [5]: < 6.30

Compound: C[C@H](O)CCCC(=O)OC(C)(C)C [Example 34, 1,1-Dimethylethyl (5S)-5-hydroxyhexanoate]
pIC50 [8]: ≥ 7.60

Compound: C[C@H](c1ccc(F)cc1CCCCS(=O)(=O)N1CCS(=O)(=O)CC1)N(c1cc(F)ccc1F)S(=O)(=O)c1ccc(Cl)cc1 [Example 1071]
pIC50 [5]: < 6.30

Compound: C[C@H](c1ccccc1OCCCN1CCCCC1)N(c1cc(F)ccc1F)S(=O)(=O)c1ccc(Cl)cc1 [Example 1061, 4-chloro-N-(2,5-difluorophenyl)-N-((1R)-1-{2-[3-(1-piperidinyl)propoxy]phenyl}ethyl)benzenesulfonamide hydrochloride]
pIC50 [9]: < 6.30

Compound: O=S(=O)(c1ccc(Cl)cc1)N(Cc1ccccc1OCCCN1CCCCC1)[C@H]1CC2CCC1C2 (stereo partly drawn) [Example 954, N-[(2S)-bicyclo[2.2.1]hept-2-yl]-4-chloro-N-{2-[3-(1-piperidinyl)propoxy]benzyl}benzenesulfonamide hydrochloride]
pIC50 [9]: < 6.30

Compound: CC(c1ccccc1OCCCN(C)S(=O)(=O)c1cccc(C(F)(F)F)c1)N(c1cc(F)ccc1F)S(=O)(=O)c1ccc(Cl)cc1 (stereo not drawn) [Example 788, N-{3-[2-(1-{[(4-chlorophenyl)sulfonyl]-2,5-difluoroanilino}ethyl)phenoxy]propyl}-N-methyl-3-(trifluoromethyl)benzenesulfonamide]
pIC50 [7]: 6.30 to 7.00

Compound: O=S(=O)(c1ccc(Cl)cc1)N(Cc1ccccc1OCCC[N+]1([O-])CCCCC1)c1ccccc1 [Example 505, 4-Chloro-N-{2-[3-(1-hydroxy-1˜lambda˜5˜piperidin-1-yl)propoxy]benzyl}-N-phenylbenzenesulfonamide]
pIC50 [6]: 6.30 to 7.00
